Data: patent US20230159453A1 (COCRYSTAL PHARMA, INC., priority 2020, published 2023)

Target: SARS2 protease (Severe acute respiratory syndrome coronavirus 2, UniProt P0DTD1)
Experiment: SARS-CoV-2 protease inhibition assay (SARS2 FRET protease assay)
Type: biochemical
Conditions: SARS-CoV-2 protease 25 nM, FRET, peptide substrate 1.3 μM, 30 minutes at 30° C., compounds 20 μM to 1.0 nM; read-out: IC50

| SMILES | IC50 [nM] |
| --- | --- |
| CC(C)(c1cccc(Cl)c1)C(OC(=O)N[C@@H](CC1CCCCC1)C(=O)N[C@H](C=O)C[C@@H]1CCNC1=O)c1ccccc1 (stereo partly drawn) [Compound C110, 2-(3-Chlorophenyl)-2-methyl-1-phenylpropyl ((S)-3-cyclohexyl-1-oxo-1-(((S)-1-oxo-3-((S)-2-oxopyrrolidin-3-yl)propan-2-yl)amino)propan-2-yl) carbamate] | 1.4 |
| CC(C)(COC(=O)N[C@H](C(=O)N[C@@H](C[C@@H]1CCNC1=O)C(O)S(=O)(=O)O)C(C)(C)C)c1cccc(Cl)c1 (stereo partly drawn) [Compound C111, Sodium (2S)-2-((S)-2-(((2-(3-chlorophenyl)-2-methylpropoxy)carbonyl)amino)-3,3-dimethylbutanamido)-1-hydroxy-3-((S)-2-oxopyrrolidin-3-yl)propane-1-sulfonate] | 491 |
| CC(=O)N1CCC2(CC1)CC(CC(NC(=O)[C@@H](CC1CCCCC1)NC(=O)c1cc3ccccc3[nH]1)C(=O)C(N)=O)C(=O)N2 (stereo partly drawn) [Compound C112, N-((2R)-1-((1-(8-acetyl-2-oxo-1,8-diazaspiro[4.5]decan-3-yl)-4-amino-3,4-dioxobutan-2-yl)amino)-3-cyclohexyl-1-oxopropan-2-yl)-1H-indole-2-carboxamide] | 185 |
| CC(C)(c1cccc(Cl)c1)C(OC(=O)N[C@@H](CC1CCCCC1)C(=O)N[C@@H](C[C@@H]1CCNC1=O)C(=O)C(N)=O)c1ccccc1 (stereo partly drawn) [Compound C113, 2-(3-Chlorophenyl)-2-methyl-1-phenylpropyl ((S)-1-(((S)-4-amino-3,4-dioxo-1-((S)-2-oxopyrrolidin-3-yl)butan-2-yl)amino)-3-cyclohexyl-1-oxopropan-2-yl) carbamate] | 133 |
| CC(C)C[C@H](NC(=O)OC(Cc1cccc(Cl)c1)c1ccccc1)C(=O)N[C@@H](C[C@@H]1CCNC1=O)C(O)S(=O)(=O)O (stereo partly drawn) [Compound C114, Sodium (2S)-2-((2S)-2-(((2-(3-chlorophenyl)-1-phenylethoxy)carbonyl)amino)-4-methylpentanamido)-1-hydroxy-3-((S)-2-oxopyrrolidin-3-yl) propane-1-sulfonate] | 11.1 |
| O=C(N[C@@H](CC1CCCCC1)C(=O)N[C@@H](C[C@@H]1CCNC1=O)C(O)S(=O)(=O)O)OC(Cc1cccc(Cl)c1)c1ccccc1 (stereo partly drawn) [Compound C115, Sodium (2S)-2-((2S)-2-(((2-(3-chlorophenyl)-1-phenylethoxy)carbonyl)amino)-3-cyclohexylpropanamido)-1-hydroxy-3-((S)-2-oxopyrrolidin-3-yl)propane-1-sulfonate] | 15.7 |
| NC(=O)C(=O)[C@H](C[C@@H]1CCNC1=O)NC(=O)[C@H](CC1CCCCC1)NC(=O)OC(Cc1cccc(Cl)c1)c1ccccc1 (stereo partly drawn) [Compound C116, 2-(3-Chlorophenyl)-1-phenylethyl ((S)-1-(((S)-4-amino-3,4-dioxo-1-((S)-2-oxopyrrolidin-3-yl)butan-2-yl)amino)-3-cyclohexyl-1-oxopropan-2-yl)carbamate] | 4840 |
| COc1cccc2[nH]c(C(=O)N[C@@H](CC3CCCCC3)C(=O)NC(CC3CC4(CCN(C(C)=O)CC4)NC3=O)C(=O)C(N)=O)cc12 (stereo partly drawn) [Compound C117, N-((2S)-1-((1-(8-Acetyl-2-oxo-1,8-diazaspiro[4.5]decan-3-yl)-4-amino-3,4-dioxobutan-2-yl)amino)-3-cyclohexyl-1-oxopropan-2-yl)-4-methoxy-1H-indole-2-carboxamide] | 55.3 |
| CC(C)C(C)(C)C(NC(=O)OCc1ccccc1)C(=O)N[C@H](C=O)C[C@@H]1CCNC1=O (stereo partly drawn) [Compound C118, Benzyl (3,3,4-trimethyl-1-oxo-1-(((S)-1-oxo-3-((S)-2-oxopyrrolidin-3-yl)propan-2-yl)amino)pentan-2-yl)carbamate] | 868 |
| NC(=O)C(=O)C(CC1CC2(CCCCC2)NC1=O)NC(=O)[C@H](CC1CCCCC1)NC(=O)c1cc2ccccc2[nH]1 (stereo partly drawn) [Compound C119, N-((2S)-1-((4-amino-3,4-dioxo-1-(2-oxo-1-azaspiro[4.5]decan-3-yl)butan-2-yl)amino)-3-cyclohexyl-1-oxopropan-2-yl)-1H-indole-2-carboxamide] | 796 |
| CC(C)(c1cccc(Cl)c1)C(OC(=O)N[C@@H](CC1CCCCC1)C(=O)N[C@@H](C[C@@H]1CCNC1=O)C(=O)C(N)=O)c1cccc(F)c1 (stereo partly drawn) [Compound C120, 2-(3-Chlorophenyl)-1-(3-fluorophenyl)-2-methylpropyl ((S)-1-(((S)-4-amino-3,4-dioxo-1-((S)-2-oxopyrrolidin-3-yl)butan-2-yl)amino)-3-cyclohexyl-1-oxopropan-2-yl) carbamate] | 1060 |
| CC(=O)N1CCC2(CC1)C[C@@H](C[C@H](NC(=O)[C@H](CC1CCCCC1)NC(=O)c1cc3ccccc3[nH]1)C(=O)C(N)=O)C(=O)N2 [Compound C121, N—((S)-1-(((S)-1-((R)-8-acetyl-2-oxo-1,8-diazaspiro[4.5]decan-3-yl)-4-amino-3,4-dioxobutan-2-yl)amino)-3-cyclohexyl-1-oxopropan-2-yl)-1H-indole-2-carboxamide] | 178 |
| CC(C)(c1cccc(Cl)c1)C(OC(=O)N[C@@H](CC1CCCCC1)C(=O)N[C@@H](C[C@@H]1CCNC1=O)C(=O)C(N)=O)c1ccc2ccccc2c1 (stereo partly drawn) [Compound C122, 2-(3-Chlorophenyl)-2-methyl-1-(naphthalen-2-yl)propyl ((S)-1-(((S)-4-amino-3,4-dioxo-1-((S)-2-oxopyrrolidin-3-yl)butan-2-yl)amino)-3-cyclohexyl-1-oxopropan-2-yl)carbamate] | 456 |
| CC1(C)CC(CC(NC(=O)[C@H](CC2CCCCC2)NC(=O)c2cc3ccccc3[nH]2)C(=O)C(N)=O)C(=O)N1 (stereo partly drawn) [Compound C123, N-((2S)-1-((4-amino-1-(5,5-dimethyl-2-oxopyrrolidin-3-yl)-3,4-dioxobutan-2-yl)amino)-3-cyclohexyl-1-oxopropan-2-yl)-1H-indole-2-carboxamide] | 294 |
| Cc1cccc(C(OC(=O)N[C@@H](CC2CCCCC2)C(=O)N[C@@H](C[C@@H]2CCNC2=O)C(=O)C(N)=O)C(C)(C)c2cccc(Cl)c2)c1 (stereo partly drawn) [Compound C124, 2-(3-chlorophenyl)-2-methyl-1-(m-tolyl)propyl ((S)-1-(((S)-4-amino-3,4-dioxo-1-((S)-2-oxopyrrolidin-3-yl)butan-2-yl)amino)-3-cyclohexyl-1-oxopropan-2-yl) carbamate] | 324 |
| CC(=O)N1CCC2(CC1)C[C@H](C[C@H](NC(=O)[C@H](CC1CCCCC1)NC(=O)c1cc3ccccc3[nH]1)C(=O)C(N)=O)C(=O)N2 [Compound C125, N—((S)-1-(((S)-1-((S)-8-acetyl-2-oxo-1,8-diazaspiro[4.5]decan-3-yl)-4-amino-3,4-dioxobutan-2-yl)amino)-3-cyclohexyl-1-oxopropan-2-yl)-1H-indole-2-carboxamide] | 20.1 |
| CC(=O)N1CCC2(CC1)CC(CC(NC(=O)[C@H](CC1CCCCC1)NC(=O)c1cc3cc(Cl)ccc3[nH]1)C(=O)C(N)=O)C(=O)N2 (stereo partly drawn) [Compound C126, N-((2S)-1-((1-(8-acetyl-2-oxo-1,8-diazaspiro[4.5]decan-3-yl)-4-amino-3,4-dioxobutan-2-yl)amino)-3-cyclohexyl-1-oxopropan-2-yl)-5-chloro-1H-indole-2-carboxamide] | 1190 |
| CC(C)(c1cccc(Cl)c1)C(OC(=O)N[C@@H](CC1CCCCC1)C(=O)N[C@H](C=O)C[C@@H]1CCNC1=O)c1ccc2ccccc2c1 (stereo partly drawn) [Compound C127] | 3.6 |
